This is an account of results in patent US11472793B2, “Inhibitors of cysteine proteases and methods of use thereof” (priority 2020, dated 2022).

One assay addresses 229E mPRO (Human coronavirus 229E (HCoV-229E), UniProt P0C6X1). Nature of the assay: 229E mPRO enzymatic assay. It counts as biochemical, Human Coronavirus (HCov) 229E.
Another assay relates to HCoV 229E. Nature of the assay: HCoV 229E cytopathic effect (CPE) assay. The format is cell-based, Human Coronavirus (HCov) 229E. As to conditions: read-out: 229E CPE EC50 (μM).

Read-outs that look alike come from different tables or passages of the source. Some results are limits rather than exact numbers.

Sequence of 229E mPRO (P0C6X1 2966-3267 limits assumed): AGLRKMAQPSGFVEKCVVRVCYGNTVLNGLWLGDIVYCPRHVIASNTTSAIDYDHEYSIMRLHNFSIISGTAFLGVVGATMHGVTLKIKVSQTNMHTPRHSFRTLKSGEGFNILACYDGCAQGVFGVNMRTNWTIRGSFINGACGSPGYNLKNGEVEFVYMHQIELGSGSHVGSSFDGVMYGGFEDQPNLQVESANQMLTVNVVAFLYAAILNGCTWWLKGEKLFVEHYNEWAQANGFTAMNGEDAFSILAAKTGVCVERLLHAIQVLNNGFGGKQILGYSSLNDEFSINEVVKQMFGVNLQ
Procedure for 229E mPRO: Compounds were assayed using standard methods to assess compound activity and IC50. […] The assay buffer contained 20 mM of Tris-HCl (pH 7.3), 100 mM of NaCl, 1 mM of EDTA, 5 mM of TCEP and 0.1% BSA.
The compounds were added to an assay plate.
IC50 values of compounds were calculated with the GraphPad Prism software using the nonlinear regression model of log(inhibitor) vs. response—Variable slope (four parameters). The inhibition activity was calculated using the formula below, IC50 values was calculated using the Inhibition % data. Inhibition %=[(Sample−Average ZPE)/(Average HPE−Average ZPE)]*100%
^#HEP: Hundred percent effect controls. Containing substrate+enzyme+1 μM GC376.
Containing enzyme+substrate, no compound.
Sample: Compound activity testing wells. Containing compound+enzyme+substrate.
BG: Compound background control wells. Containing compound+substrate, no enzyme.
Procedure for HCoV 229E: The antiviral activity of compounds was calculated based on the protection of the virus-induced CPE at each concentration normalized by the virus control.
Reagents and instruments used in this assay include luminescent cell viability assay kit CellTiter Glo (Promega) and Microplate Reader Synergy2 (BioTek).
Cytopathic effect (CPE) was measured by CellTiter Glo following the manufacturer's manual. The antiviral activity of compounds was calculated based on the protection of the virus-induced CPE at each concentration normalized by the virus control.

Take `COc1cccc2[nH]c(C(=O)N3C[C@@H]4CC[C@@H]4[C@H]3C(=O)N[C@H](C#N)C[C@@H]3CCNC3=O)cc12` (single isomer, unassigned) [547 (Isomer 2)]: the IC50 on 229E mPRO (read-out: 229E mPRO IC50) is less than 2000 nM.
Turning to `N#C[C@H](C[C@@H]1CCCNC1=O)NC(=O)C1CC2(CCC2)CN1C(=O)c1cc2cccc(Cl)c2[nH]1` (single isomer, unassigned) [729 (Isomer 1)], the IC50 at 229E mPRO (read-out: 229E mPRO IC50) is less than 2000 nM.
On 229E mPRO, `N#C[C@H](C[C@@H]1CCCNC1=O)NC(=O)C1CC2(CCC2)CN1C(=O)c1cc2cccc(Cl)c2[nH]1` (single isomer, unassigned) [731 (Isomer 1)] displayed an IC50 of less than 2000 nM. In addition, in the assay on HCoV 229E, the EC50 was less than 2 µM.
For the compound `N#C[C@H](C[C@@H]1CCCNC1=O)NC(=O)C1CC2(CN1C(=O)c1cc3cccc(Cl)c3[nH]1)CC(F)(F)C2` (single isomer, unassigned) [743 (Isomer 2)], the IC50 against 229E mPRO was less than 2000 nM. In addition, in the assay on HCoV 229E, the EC50 is less than 2 µM.
